The test concerns the target T1, human PD-1 / PD-L1-Ig binding on Jurkat cell line over-expressing human PD-1 (Jurkat-PD-1) (Homo sapiens, UniProt Q15116).
T1 construct: expressed in transfected cells; host or cells: Jurkat
In words: Jurkat-PD-1 Cell Binding High-Content Screening Assay (CBA). It is filed as cell-based. To be noted: PE-labeled PD-L1-Ig 20 nM final. Put shortly:
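Jurkat-hPD-1 cells in DMEM with 10% fetal calf serum receive test compound and are held at 37° C for 2 h. PE-labeled PD-L1-Ig is added at 20 nM final and left for 1 hour. Cells are then fixed and Hoechst-stained, and binding is measured by imaging.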

[1] abbreviates: Jurkat-PD-1 cells, read-out: Jurkat HPD1_PDL1 IC50.

For 14 compounds, IC50 results are on record in patent US20250163104A1, “MACROCYCLIC IMMUNOMODULATORS” (priority 2021, published 2025).

Where two headings read alike, the source gives them in different places. Where a SMILES comes first, the peptide text is derived from it. Bridges are numbered along the chain shown (N, C = ends). [ ]: non-standard residue; d: D form. The star is where a group is joined. ξ: configuration not given here. Phe(4-COOH) = N[C@@H](Cc1ccc(C(=O)O)cc1)C(=O)O; Bip = N[C@@H](Cc1ccc(-c2ccccc2)cc1)C(=O)O; Phe(3-Me) = Cc1cccc(C[C@H](N)C(=O)O)c1; Val(3-OH) = CC(C)(O)[C@H](N)C(=O)O; 4Pal = N[C@@H](Cc1ccncc1)C(=O)O; Cha = N[C@@H](CC1CCCCC1)C(=O)O; Cit = NC(=O)NCCC[C@H](N)C(=O)O; Thr(3ξ) = CC(O)[C@H](N)C(=O)O; ξIle = CC[C@H](C)C(N)C(=O)O; Carboxymethyl = O=C(O)C*; Orn = NCCC[C@H](N)C(=O)O; Pra = C#CC[C@H](N)C(=O)O; Dab = NCC[C@H](N)C(=O)O; Dap = NC[C@H](N)C(=O)O

T1 sequence (Q15116 25-288): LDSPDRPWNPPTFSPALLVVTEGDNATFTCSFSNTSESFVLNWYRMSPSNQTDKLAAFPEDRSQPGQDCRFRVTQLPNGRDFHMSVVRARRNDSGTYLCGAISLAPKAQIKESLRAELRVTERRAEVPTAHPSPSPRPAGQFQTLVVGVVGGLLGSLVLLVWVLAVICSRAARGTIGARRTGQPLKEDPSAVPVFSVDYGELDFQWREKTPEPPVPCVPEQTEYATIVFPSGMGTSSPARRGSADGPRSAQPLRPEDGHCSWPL

The term IC50 denotes the concentration at which inhibition is half-maximal. Regarding `Cc1cccc(C[C@@H]2NC(=O)[C@H](CC(=O)O)NC(=O)[C@H](Cc3ccc(C(=O)O)cc3)NC(=O)[C@H](Cc3ccncc3)NC(=O)CSC[C@@H](C(N)=O)NC(=O)[C@H](CCC(=O)O)NC(=O)[C@H](C(C)C)NC(=O)[C@H](CC3CCCCC3)NC(=O)[C@H](CCN)NC(=O)[C@@H](CC(C)C)NC(=O)[C@H](CCCN)NC(=O)[C@H](CCCNC(N)=O)NC(=O)[C@H](Cc3ccc(-c4ccccc4)cc3)NC(=O)[C@H](C(C)C)NC2=O)c1` [Compound 2269] ({CH2CO}-[4Pal][Phe(4-COOH)]D[Phe(3-Me)]V[Bip][Cit][Orn][dL][Dab][Cha]VEC-NH2; thioether N-14), the IC50 under setting [1] turned out to be 34.1 nM.
On the same count and under the same terms, for `CC(C)C[C@@H]1NC(=O)[C@H](Cc2c[nH]c3ccccc23)NC(=O)[C@H](CC(=O)O)NC(=O)[C@H](Cc2ccc(O)cc2)NC(=O)[C@H](Cc2ccccc2)NC(=O)CSC[C@@H](C(=O)NCC(N)=O)NC(=O)[C@H](CO)NC(=O)[C@H](C(C)C)NC(=O)[C@H](CC(C)C)NC(=O)[C@H](CC(N)=O)NC(=O)[C@@H](CC(C)C)NC(=O)[C@H](CCCN)NC(=O)[C@H](C(C)C)NC(=O)[C@H](Cc2ccc(-c3ccccc3)cc2)NC1=O` [Compound 1067] ({CH2CO}-FYDWL[Bip]V[Orn][dL]NLVSCG-NH2; thioether N-14) the value was 22.2 nM.
The same measure, in the same setting: to `CC(C)C[C@H]1NC(=O)[C@H](CCCN)NC(=O)[C@H](CCCCN)NC(=O)[C@H](Cc2ccc(-c3ccccc3)cc2)NC(=O)[C@H](C(C)C)NC(=O)[C@H](Cc2c[nH]c3ccccc23)NC(=O)[C@H](CC(=O)O)NC(=O)[C@H](Cc2ccc(C(=O)O)cc2)NC(=O)[C@H](Cc2ccc(OCC(=O)O)cc2)NC(=O)CSC[C@@H](C(=O)N[C@@H](C)C(N)=O)NC(=O)[C@H]([C@@H](C)O)NC(=O)[C@H](C(C)C)NC(=O)[C@H](CC2CCCCC2)NC(=O)[C@H](CCN)NC1=O` [Compound 1385] ({CH2CO}-Y(Carboxymethyl)[Phe(4-COOH)]DWV[Bip]K[Orn][dL][Dab][Cha]VTCA-NH2; thioether N-14) belongs 6.1 nM; to `CC(C)C[C@H]1NC(=O)[C@H](CCCN)NC(=O)[C@H](CCC(=O)O)NC(=O)[C@H](Cc2ccc(-c3ccccc3)cc2)NC(=O)[C@H](C(C)C)NC(=O)[C@H](Cc2ccc(F)cc2)NC(=O)[C@H](CC(=O)O)NC(=O)[C@H](Cc2ccc(OCC(=O)O)cc2)NC(=O)[C@H](CN)NC(=O)CSC[C@@H](C(=O)N[C@@H](C)C(N)=O)NC(=O)[C@H]([C@@H](C)O)NC(=O)[C@H](C(C)C)NC(=O)[C@H](CC2CCCCC2)NC(=O)[C@H](CCN)NC1=O` [Compound 2147], 12 nM; to `CC(C)C[C@H]1NC(=O)[C@H](CCCN)NC(=O)[C@H](CCCNC(N)=O)NC(=O)[C@H](Cc2ccc(-c3ccccc3)cc2)NC(=O)[C@H](C(C)C)NC(=O)[C@H](Cc2c[nH]c3ccccc23)NC(=O)[C@H](CC(=O)O)NC(=O)[C@H](Cc2ccc(OCC(=O)O)cc2)NC(=O)[C@H](CN)NC(=O)CSC[C@@H](C(=O)N[C@@H](C)C(N)=O)NC(=O)[C@H]([C@@H](C)O)NC(=O)[C@H](C(C)C)NC(=O)[C@H](CC2CCCCC2)NC(=O)[C@H](CCN)NC1=O` [Compound 1308] ({CH2CO}-[Dap]Y(Carboxymethyl)DWV[Bip][Cit][Orn][dL][Dab][Cha]VTCA-NH2; thioether N-14), 12.6 nM.
Same read-out and setting: to `C#CC[C@H](NC(=O)[C@H](CCN)NC(=O)[C@@H]1CSCC(=O)N[C@@H](CCN)C(=O)N[C@@H](Cc2ccc(OCC(=O)O)cc2)C(=O)N[C@@H](CC(=O)O)C(=O)N[C@@H](Cc2cccc(C)c2)C(=O)N[C@@H](Cc2ccc(OCC(=O)O)cc2)C(=O)N[C@@H](Cc2ccc(-c3ccccc3)cc2)C(=O)N[C@@H](Cc2ccc(OCC(=O)O)cc2)C(=O)N[C@@H](CCCN)C(=O)N[C@H](CC(C)C)C(=O)N[C@@H](CCN)C(=O)N[C@@H](CC2CCCCC2)C(=O)N[C@@H](C(C)(C)O)C(=O)N[C@@H](CO)C(=O)N1)C(N)=O` [Compound 1851] ({CH2CO}-[Dab]Y(Carboxymethyl)D[Phe(3-Me)]Y(Carboxymethyl)[Bip]Y(Carboxymethyl)[Orn][dL][Dab][Cha][Val(3-OH)]SC[Dab][Pra]-NH2; thioether N-14) belongs 5.2 nM; to `CC(C)C[C@@H]1NC(=O)[C@H](Cc2c[nH]c3ccccc23)NC(=O)[C@H](CC(=O)O)NC(=O)[C@H](Cc2ccc(C(=O)O)cc2)NC(=O)[C@H](Cc2ccc(OCC(=O)O)cc2)NC(=O)CSC[C@@H](C(=O)NCC(N)=O)NC(=O)[C@H](CO)NC(=O)[C@H](C(C)C)NC(=O)[C@H](CC2CCCCC2)NC(=O)[C@H](CCN)NC(=O)[C@@H](CC(C)C)NC(=O)[C@H](CCCN)NC(=O)[C@H](C(C)C)NC(=O)[C@H](Cc2ccc(-c3ccccc3)cc2)NC1=O` [Compound 1405] ({CH2CO}-Y(Carboxymethyl)[Phe(4-COOH)]DWL[Bip]V[Orn][dL][Dab][Cha]VSCG-NH2; thioether N-14), 7.4 nM; to `Cc1cccc(C[C@@H]2NC(=O)[C@H](CC(=O)O)NC(=O)[C@H](Cc3ccc(C(=O)O)cc3)NC(=O)[C@H](Cc3ccncc3)NC(=O)CSC[C@@H](C(=O)N[C@@H](CC(N)=O)C(N)=O)NC(=O)[C@H](C(C)O)NC(=O)[C@H](C(C)C)NC(=O)[C@H](CC3CCCCC3)NC(=O)[C@H](CCN)NC(=O)[C@@H](CC(C)C)NC(=O)[C@H](CCCN)NC(=O)[C@H](Cc3ccc(O)cc3)NC(=O)[C@H](Cc3ccc(-c4ccccc4)cc3)NC(=O)[C@H](C(C)C)NC2=O)c1` (stereo partly drawn) [Compound 2288] ({CH2CO}-[4Pal][Phe(4-COOH)]D[Phe(3-Me)]V[Bip]Y[Orn][dL][Dab][Cha]V[Thr(3ξ)]CN-NH2; thioether N-14), 14.6 nM.
Regarding `CC[C@H](C)C1NC(=O)[C@H](Cc2ccc(-c3ccccc3)cc2)NC(=O)[C@H](C(C)C)NC(=O)[C@H](Cc2c[nH]c3ccccc23)NC(=O)[C@H](CC(N)=O)NC(=O)[C@H](Cc2ccc(O)cc2)NC(=O)[C@H](CN)NC(=O)CSC[C@@H](C(=O)N[C@@H](C)C(N)=O)NC(=O)[C@H]([C@@H](C)O)NC(=O)[C@H](C(C)C)NC(=O)[C@H](CC(C)C)NC(=O)[C@H](CCN)NC(=O)[C@@H](CC(C)C)NC(=O)[C@H](CCN)NC1=O` (stereo partly drawn) [Compound 1090] ({CH2CO}-[Dap]YNWV[Bip][ξIle][Dab][dL][Dab]LVTCA-NH2; thioether N-14), the half-inhibitory concentration (IC50) under setting [1] was 28 nM.
Turning to `CC(C)C[C@H]1NC(=O)[C@H](CCCN)NC(=O)[C@H](C(C)C)NC(=O)[C@H](Cc2ccc(-c3ccccc3)cc2)NC(=O)[C@H](C(C)C)NC(=O)[C@H](Cc2c[nH]c3ccccc23)NC(=O)[C@H](CC(=O)O)NC(=O)[C@H](Cc2ccc(C(=O)O)cc2)NC(=O)[C@H](Cc2ccc(OCC(=O)O)cc2)NC(=O)CSC[C@@H](C(=O)N[C@@H](CCN)C(=O)N[C@@H](CCCNC(=N)N)C(=O)O)NC(=O)[C@H](CCCN)NC(=O)[C@H](C(C)C)NC(=O)[C@H](CC2CCCCC2)NC(=O)[C@H](CCN)NC1=O` [Compound 2587] ({CH2CO}-Y(Carboxymethyl)[Phe(4-COOH)]DWV[Bip]V[Orn][dL][Dab][Cha]V[Orn]C[Dab]R-OH; thioether N-14), the IC50 (Jurkat HPD1_PDL1 IC50, Jurkat-PD-1 cells) came out at 18.4 nM.
With `CC[C@H](C)[C@@H]1NC(=O)[C@H](Cc2ccc(-c3ccccc3)cc2)NC(=O)[C@H](C(C)C)NC(=O)[C@H](Cc2c[nH]c3ccccc23)NC(=O)[C@H](CC(=O)O)NC(=O)[C@H](Cc2ccc(O)cc2)NC(=O)[C@H](CC(N)=O)NC(=O)CSC[C@@H](C(=O)N[C@@H](C)C(N)=O)NC(=O)[C@H]([C@@H](C)O)NC(=O)[C@H](C(C)C)NC(=O)[C@H](CC(C)C)NC(=O)[C@H](CCCCN)NC(=O)[C@@H](CC(C)C)NC(=O)[C@H](CCCN)NC1=O` [Compound 1129] ({CH2CO}-NYDWV[Bip]I[Orn][dL]KLVTCA-NH2; thioether N-14), the concentration for half-maximal inhibition (IC50) under setting [1] is 19.7 nM.
On the same count and under the same terms, to `CC(C)C[C@@H]1NC(=O)[C@H](CCN)NC(=O)[C@@H](CC(C)C)NC(=O)[C@H](CCN)NC(=O)[C@H](CCCNC(=N)N)NC(=O)[C@H](Cc2ccc(-c3ccccc3)cc2)NC(=O)[C@H](C(C)C)NC(=O)[C@H](Cc2c[nH]c3ccccc23)NC(=O)[C@H](CC(=O)O)NC(=O)[C@H](Cc2ccc(O)cc2)NC(=O)[C@H](CC(N)=O)NC(=O)CSC[C@@H](C(=O)N[C@@H](C)C(N)=O)NC(=O)[C@H]([C@@H](C)O)NC(=O)[C@H](C(C)C)NC1=O` [Compound 1004] ({CH2CO}-NYDWV[Bip]R[Dab][dL][Dab]LVTCA-NH2; thioether N-14) belongs 53.2 nM; to `CC(C)C[C@@H]1NC(=O)[C@H](Cc2c[nH]c3ccccc23)NC(=O)[C@H](CC(=O)O)NC(=O)[C@H](Cc2ccc(O)cc2)NC(=O)[C@H](Cc2ccccc2)NC(=O)CSC[C@@H](C(=O)NCC(N)=O)NC(=O)[C@H]([C@@H](C)O)NC(=O)[C@H](C(C)C)NC(=O)[C@H](CC(C)C)NC(=O)[C@H](CC(N)=O)NC(=O)[C@@H](CC(C)C)NC(=O)[C@H](CN)NC(=O)[C@H](C(C)C)NC(=O)[C@H](Cc2ccc(-c3ccccc3)cc2)NC1=O` [Compound 1070] ({CH2CO}-FYDWL[Bip]V[Dap][dL]NLVTCG-NH2; thioether N-14), 38.8 nM.
On the same count and under the same terms, to `CC(C)C[C@H]1NC(=O)[C@H](CCCN)NC(=O)[C@H](CCN)NC(=O)[C@H](Cc2ccc(-c3ccccc3)cc2)NC(=O)[C@H](C(C)C)NC(=O)[C@H](Cc2c[nH]c3ccccc23)NC(=O)[C@H](CC(=O)O)NC(=O)[C@H](Cc2ccncc2)NC(=O)[C@H](CN)NC(=O)CSC[C@@H](C(=O)N[C@@H](C)C(N)=O)NC(=O)[C@H]([C@@H](C)O)NC(=O)[C@H](C(C)C)NC(=O)[C@H](CC2CCCCC2)NC(=O)[C@H](CCN)NC1=O` [Compound 1387] belongs 24.9 nM.
